Experimental data taken from patent publication US20030207812A1, “Cd45 inhibitors” (priority 2002, published 2003).
Where a SMILES comes first, the peptide text is derived from it. The star is where a group is joined. Phenanthrenequinone2carbonyl = O=C1C(=O)c2cc(C(=O)*)ccc2-c2ccccc21; 3Phenanthroyl(9,10-dioxo) = O=C1C(=O)c2ccc(C(=O)*)cc2-c2ccccc21

What was measured:
in vitro = conditions: human
CD45 [1] = biological target: T1, CD45 (Homo sapiens, UniProt P08575); assay: Phosphatase assay using pNPP as substrate; format: biochemical
T1 construct: incubating the cytosolic portion of CD45 with the compounds and p-nitrophenyl phosphate (pNPP); purchased BIOMOL (Plymouth Meeting, Pa.)
T1 sequence (P08575 599-1306 limits assumed): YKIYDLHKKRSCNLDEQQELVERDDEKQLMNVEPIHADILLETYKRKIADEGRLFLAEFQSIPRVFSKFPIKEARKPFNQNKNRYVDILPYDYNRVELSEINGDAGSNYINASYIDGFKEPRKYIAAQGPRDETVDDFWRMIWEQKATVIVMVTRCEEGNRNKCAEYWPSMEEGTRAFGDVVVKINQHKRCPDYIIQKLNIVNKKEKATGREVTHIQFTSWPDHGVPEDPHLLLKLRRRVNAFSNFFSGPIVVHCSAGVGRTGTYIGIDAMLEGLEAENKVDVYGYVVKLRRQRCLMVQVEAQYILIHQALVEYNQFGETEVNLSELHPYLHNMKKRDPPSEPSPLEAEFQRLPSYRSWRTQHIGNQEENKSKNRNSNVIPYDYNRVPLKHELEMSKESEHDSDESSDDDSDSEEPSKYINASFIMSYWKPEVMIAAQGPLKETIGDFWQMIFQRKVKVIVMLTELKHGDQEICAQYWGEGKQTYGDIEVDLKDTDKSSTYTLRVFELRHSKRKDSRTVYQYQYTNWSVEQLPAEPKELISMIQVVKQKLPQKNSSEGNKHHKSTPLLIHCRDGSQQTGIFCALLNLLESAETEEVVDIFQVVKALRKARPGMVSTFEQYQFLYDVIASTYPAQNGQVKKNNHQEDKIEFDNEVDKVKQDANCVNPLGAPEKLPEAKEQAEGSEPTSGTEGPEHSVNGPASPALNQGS
Description: Phosphatase assay using pNPP as substrate:
CD45 enzyme was obtained from BIOMOL (Plymouth Meeting, Pa.). Phosphatase activity was assayed in a buffer containing final concentrations of 25 mM imidazole at pH 7.0, 50 mM NaCl, 2.5 mM ethylenediaminetetraacetic acid (“EDTA”), 5 mM dithiothreitol (“DTT”) and 10 μg/mL bovine serum albumin (“BSA”) using pNPP as a substrate.

CD45 [2] = biological target: T1, CD45; assay: Phosphatase assay using lck 10-mer as substrate; format: biochemical
Procedure, shortened: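 Enzyme incubated with lck phosphopeptide TEGQpYQPQP for 1.5 h at room temperature in 25 mM HEPES pH 7.2, 5 mM DTT, 10 μg/mL BSA, 5% DMSO final. Compounds tested from 30 to 0.01 μM. Released phosphate detected with malachite-type Green Reagent, absorbance at 620 nm after 30 min.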

T cells (PBMC) = assay: cells; format: cell-based, human; conditions: human PBMC, OKT3 30 ng/mL, [3H]thymidine; read-out: T cell prolif. IC50
[3] = CD45 phosphatase, lck carboxy-terminal peptide TEGQpYQPQP substrate, pH 7.2, read-out: Ick IC50

SMILES	CC50 (in vitro)	IC50 (CD45 [1])	IC50 (CD45 [2]; [3])	IC50 (CD45 [1]; pH 7, read-out: pNPP IC50)	IC50 (CD45 [2])	IC50 (T cells (PBMC))	IC50 (CD45 [2]; pH 7.2, read-out: Ick IC50)
NC(=O)CC[C@H](NC(=O)[C@@H]1CCCN1C(=O)[C@H](CCC(N)=O)NC(=O)CNC(=O)c1ccc2c(c1)-c1ccccc1C(=O)C2=O)C(=O)NCC(=O)O [Example 36] ({3Phenanthroyl(9,10-dioxo)}-GQPQG-OH)	> 30 µM	1 µM	2.2 µM	–	–	–	–
NC(=O)CC[C@H](NC(=O)c1ccc2c(c1)-c1ccccc1C(=O)C2=O)C(=O)N[C@@H](CCC(N)=O)C(=O)N1CCC[C@H]1C(=O)N[C@@H](CCC(N)=O)C(=O)NCC(=O)O [Example 37] ({3Phenanthroyl(9,10-dioxo)}-QQPQG-OH)	> 30 µM	1.1 µM	2.1 µM	–	–	–	–
NC(=O)CC[C@H](NC(=O)CNC(=O)c1ccc2c(c1)-c1ccccc1C(=O)C2=O)C(=O)N1CCC[C@H]1C(=O)N[C@@H](CCC(=O)O)C(=O)NCC(=O)O [Example 39] ({3Phenanthroyl(9,10-dioxo)}-GQPEG-OH)	> 30 µM	0.7 µM	2.3 µM	–	–	–	–
O=C(O)CC[C@H](NC(=O)[C@@H]1CCCN1C(=O)CNC(=O)CNC(=O)c1ccc2c(c1)C(=O)C(=O)c1ccccc1-2)C(=O)NCC(=O)O [Example 40] (Phenanthrenequinone2carbonyl-GGPEG-OH)	> 30 µM	–	–	0.6 µM	3.9 µM	–	–
O=C(O)CC[C@H](NC(=O)c1ccc2c(c1)C(=O)C(=O)c1ccccc1-2)C(=O)NCC(=O)N1CCC[C@H]1C(=O)N[C@@H](CCC(=O)O)C(=O)NCC(=O)O [Example 41] (Phenanthrenequinone2carbonyl-EGPEG-OH)	> 30 µM	–	–	1.4 µM	3.5 µM	–	–
N=C(N)NCCC[C@H](NC(=O)c1ccc2c(c1)C(=O)C(=O)c1ccccc1-2)C(=O)NCC(=O)N1CCC[C@H]1C(=O)N[C@@H](CCC(=O)O)C(=O)NCC(=O)O [Example 42] (Phenanthrenequinone2carbonyl-RGPEG-OH)	> 30 µM	–	–	0.9 µM	3.5 µM	–	–
O=C(O)CC[C@H](NC(=O)[C@@H]1CCCN1C(=O)[C@H](CCC(=O)O)NC(=O)CNC(=O)c1ccc2c(c1)C(=O)C(=O)c1ccccc1-2)C(=O)NCC(=O)O [Example 43] (Phenanthrenequinone2carbonyl-GEPEG-OH)	> 30 µM	–	–	1.9 µM	3.8 µM	–	–
O=C(O)CC[C@H](NC(=O)c1ccc2c(c1)C(=O)C(=O)c1ccccc1-2)C(=O)N[C@@H](CCC(=O)O)C(=O)N1CCC[C@H]1C(=O)N[C@@H](CCC(=O)O)C(=O)NCC(=O)O [Example 44] (Phenanthrenequinone2carbonyl-EEPEG-OH)	> 30 µM	–	–	1.1 µM	3.8 µM	–	–
N=C(N)NCCC[C@H](NC(=O)c1ccc2c(c1)C(=O)C(=O)c1ccccc1-2)C(=O)N[C@@H](CCC(=O)O)C(=O)N1CCC[C@H]1C(=O)N[C@@H](CCC(=O)O)C(=O)NCC(=O)O [Example 45] (Phenanthrenequinone2carbonyl-REPEG-OH)	> 30 µM	–	–	1.4 µM	3.9 µM	–	–
N=C(N)NCCC[C@H](NC(=O)CNC(=O)c1ccc2c(c1)C(=O)C(=O)c1ccccc1-2)C(=O)N1CCC[C@H]1C(=O)N[C@@H](CCC(=O)O)C(=O)NCC(=O)O [Example 46] (Phenanthrenequinone2carbonyl-GRPEG-OH)	> 30 µM	–	–	1 µM	3.8 µM	–	–
N=C(N)NCCC[C@H](NC(=O)[C@H](CCC(=O)O)NC(=O)c1ccc2c(c1)C(=O)C(=O)c1ccccc1-2)C(=O)N1CCC[C@H]1C(=O)N[C@@H](CCC(=O)O)C(=O)NCC(=O)O [Example 47] (Phenanthrenequinone2carbonyl-ERPEG-OH)	> 30 µM	–	–	0.7 µM	4.2 µM	–	–
N=C(N)NCCC[C@H](NC(=O)c1ccc2c(c1)C(=O)C(=O)c1ccccc1-2)C(=O)N[C@@H](CCCNC(=N)N)C(=O)N1CCC[C@H]1C(=O)N[C@@H](CCC(=O)O)C(=O)NCC(=O)O [Example 48] (Phenanthrenequinone2carbonyl-RRPEG-OH)	> 30 µM	–	–	0.6 µM	5.7 µM	–	–
N=C(N)NCCC[C@H](NC(=O)[C@@H]1CCCN1C(=O)CNC(=O)CNC(=O)c1ccc2c(c1)C(=O)C(=O)c1ccccc1-2)C(=O)NCC(=O)O [Example 49] (Phenanthrenequinone2carbonyl-GGPRG-OH)	> 30 µM	–	–	0.9 µM	6.1 µM	–	–
N=C(N)NCCC[C@H](NC(=O)[C@@H]1CCCN1C(=O)CNC(=O)[C@H](CCC(=O)O)NC(=O)c1ccc2c(c1)C(=O)C(=O)c1ccccc1-2)C(=O)NCC(=O)O [Example 50] (Phenanthrenequinone2carbonyl-EGPRG-OH)	> 30 µM	–	–	0.7 µM	2.8 µM	–	–
N=C(N)NCCC[C@H](NC(=O)c1ccc2c(c1)C(=O)C(=O)c1ccccc1-2)C(=O)NCC(=O)N1CCC[C@H]1C(=O)N[C@@H](CCCNC(=N)N)C(=O)NCC(=O)O [Example 51] (Phenanthrenequinone2carbonyl-RGPRG-OH)	> 30 µM	–	–	1.1 µM	4.8 µM	–	–
N=C(N)NCCC[C@H](NC(=O)[C@@H]1CCCN1C(=O)[C@H](CCC(=O)O)NC(=O)CNC(=O)c1ccc2c(c1)C(=O)C(=O)c1ccccc1-2)C(=O)NCC(=O)O [Example 52] (Phenanthrenequinone2carbonyl-GEPRG-OH)	> 30 µM	–	–	0.8 µM	3 µM	–	–
N=C(N)NCCC[C@H](NC(=O)[C@@H]1CCCN1C(=O)[C@H](CCC(=O)O)NC(=O)[C@H](CCC(=O)O)NC(=O)c1ccc2c(c1)C(=O)C(=O)c1ccccc1-2)C(=O)NCC(=O)O [Example 53] (Phenanthrenequinone2carbonyl-EEPRG-OH)	> 30 µM	–	–	1 µM	3.7 µM	–	–
N=C(N)NCCC[C@H](NC(=O)c1ccc2c(c1)C(=O)C(=O)c1ccccc1-2)C(=O)N[C@@H](CCC(=O)O)C(=O)N1CCC[C@H]1C(=O)N[C@@H](CCCNC(=N)N)C(=O)NCC(=O)O [Example 54] (Phenanthrenequinone2carbonyl-REPRG-OH)	> 30 µM	0.9 µM	3.9 µM	–	–	–	–
N=C(N)NCCC[C@H](NC(=O)[C@@H]1CCCN1C(=O)[C@H](CCCNC(=N)N)NC(=O)CNC(=O)c1ccc2c(c1)C(=O)C(=O)c1ccccc1-2)C(=O)NCC(=O)O [Example 55] (Phenanthrenequinone2carbonyl-GRPRG-OH)	> 30 µM	–	–	1.4 µM	4.7 µM	–	–
N=C(N)NCCC[C@H](NC(=O)[C@@H]1CCCN1C(=O)[C@H](CCCNC(=N)N)NC(=O)[C@H](CCC(=O)O)NC(=O)c1ccc2c(c1)C(=O)C(=O)c1ccccc1-2)C(=O)NCC(=O)O [Example 56] (Phenanthrenequinone2carbonyl-ERPRG-OH)	> 30 µM	–	–	0.8 µM	2.3 µM	–	–
N=C(N)NCCC[C@H](NC(=O)c1ccc2c(c1)C(=O)C(=O)c1ccccc1-2)C(=O)N[C@@H](CCCNC(=N)N)C(=O)N1CCC[C@H]1C(=O)N[C@@H](CCCNC(=N)N)C(=O)NCC(=O)O [Example 57] (Phenanthrenequinone2carbonyl-RRPRG-OH)	> 30 µM	–	–	1.3 µM	3.2 µM	–	–
O=C1C(=O)c2ccccc2-c2ccccc21 [Example 106, 9,10-Phenanthrenedione]	1.3 µM	–	–	0.7 µM	–	0.3 µM	3.1 µM
